Each structure is given as a SMILES string.

This experiment has as its target T1, NostocER1 (Nostoc sp. PCC 7120 = FACHB-418, UniProt A0ACD6B956).
T1 construct: gene all1865; full-length gene, pET28a(+) based vector (NcoI/BamHI), co-expressed with M. vaccae FDH in E. coli BL21(DE3)
Nature of the experiment: whole-cell biotransformation, chiral GC-FID. Type of experiment: cell-based. As to conditions: E. coli BL21(DE3) whole cells with FDH; 300 mM (R)-carvone, 450 mM formate, 0.1 mM NAD+, XAD4 resin, pH 7.0, 25 °C; product (2R,5R)-dihydrocarvone.

T1 sequence (A0ACD6B956 38-402): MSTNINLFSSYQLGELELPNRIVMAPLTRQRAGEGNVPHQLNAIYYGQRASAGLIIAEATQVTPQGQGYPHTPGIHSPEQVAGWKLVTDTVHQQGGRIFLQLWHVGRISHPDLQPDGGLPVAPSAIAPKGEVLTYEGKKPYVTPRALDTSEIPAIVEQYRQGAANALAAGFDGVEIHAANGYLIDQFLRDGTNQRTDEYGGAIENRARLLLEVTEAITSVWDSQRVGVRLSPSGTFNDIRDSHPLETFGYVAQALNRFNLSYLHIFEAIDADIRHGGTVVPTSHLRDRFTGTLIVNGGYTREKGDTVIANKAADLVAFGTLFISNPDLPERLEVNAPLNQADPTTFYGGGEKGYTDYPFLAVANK

For the molecule `C=C(C)[C@@H]1CC=C(C)C(=O)C1` [compound 1, (R)-carvone], the “whole-cell biotransformation, chiral GC-FID” value is listed as “E. coli cells with the NostocER1 wild type possessed the slowest of all determined product formation rates”.

The record behind these values is publication PMC6681004, “Asymmetric Whole-Cell Bio-Reductions of (R)-Carvone Using Optimized Ene Reductases” (Molecules, 2019).
